Broadly, the EC50 is the concentration needed to bring the measured effect to its halfway point.

For this assay, the target named is T1, human Oxytocin (OTR) receptor (Homo sapiens, UniProt P30559).
T1 construct: expressed in transfected cells
T1 sequence (P30559 1-389): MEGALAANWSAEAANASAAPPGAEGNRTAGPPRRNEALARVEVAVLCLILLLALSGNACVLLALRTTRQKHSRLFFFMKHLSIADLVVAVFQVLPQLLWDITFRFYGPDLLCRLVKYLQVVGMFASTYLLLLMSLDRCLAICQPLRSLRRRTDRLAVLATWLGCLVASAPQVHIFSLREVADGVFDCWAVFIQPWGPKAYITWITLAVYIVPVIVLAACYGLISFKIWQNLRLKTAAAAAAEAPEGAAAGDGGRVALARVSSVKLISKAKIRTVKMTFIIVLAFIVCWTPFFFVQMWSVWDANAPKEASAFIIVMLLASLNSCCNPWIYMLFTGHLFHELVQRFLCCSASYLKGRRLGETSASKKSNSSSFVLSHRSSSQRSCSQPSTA
Kind of assay: Calcium flux assay (FLIPR), agonist mode, CHO cells expressing human oxytocin receptor. The assay is classed as cell-based. Particulars: for EC50: CHO cells, human OTR, calcium flux FLIPR, read-out: hOT EC50. The source says:
Chines Hamster Ovary (CHO) cells were transfected with expression plasmids encoding either the human V1a, the human Oxytocin (OTR) or the human V2 receptor, the later in combination with the chimeric Gqs5 G protein to redirect the signal to Calcium flux. Stable cells were cloned by limiting dilution to yield monoclonal cell lines expressing either human V1a, human V2+Gqs5 or human OTR receptors and selected based on functional responses detected on a fluorometric imaging plate reader (FLIPR) detecting Calcium flux in the cell after receptor activation. The stable cell lines were grown in F-12 K Nutrient Mixture (Kaighns Modification), containing 10% foetal bovine serum (FBS), 1% penicillin-streptomycin, 1% L-[…], 200 ug/ml Geneticin at 37° C. in a 10% CO2 incubator at 95% humidity.
On the afternoon before the assay, cells were plated at a density of 50,000 cells/well into black 96 well plates with clear bottoms to allow cell inspection and fluorescence measurements from the bottom of each well. The density of cells was sufficient to yield a confluent monolayer the next day. Hanks balanced salt solution, without phenol red, containing 20 mM HEPES (pH 7.3) and 2.5 mM probenecid (assay buffer) was prepared fresh for each experiment. Compound dilutions were made using a Beckman Biomek 2000 laboratory automation workstation, in assay buffer containing 1% DMSO. The dye-loading buffer consisted of a final concentration of 2 μM Fluo-4-AM (dissolved in DMSO and pluronic acid) in assay buffer. The existing culture media was removed from the wells and 100 μl of the dye-loading buffer was added to each well and incubated for approximately 60 min at 37° C. in a 5% CO2 incubator at 95% humidity. Once dye-loaded, the cells were washed thoroughly on an Embla cell washer with the assay buffer to remove any unincorporated dye. Exactly 100 μl assay buffer was left in each well.
Each 96 well plate containing dye-loaded cells was placed into the FLIPR machine and the laser intensity set to a suitable level to detect low basal fluorescence. To test compounds as agonists, 25 μl diluted compound was added to the plate 10 seconds into the fluorescent measurements and fluorescent response was recorded for 5 minutes. The fluorescence data was normalized to the endogenous full agonist dose-response set at 100% for the maximum response and 0% for the minimum. Each agonist concentration-response curve was constructed using a four parameter logistic equation with Microsoft Excel XLFit as follows: Y=Minimum+((Maximum−Minimum)/(1+10^(LogEC50-X)nH)), where y is the % normalized fluorescence, minimum is the minimum y, maximum is the maximum y, logEC50 is the log10 concentration which produces 50% of the maximum induced fluorescence, x is the log10 of the concentration of the agonist compound and H is the slope of the curve (the Hill Coefficient). The maximum value gives the efficacy of the agonist test compound in percentage. The concentration of agonist that produced a half-maximal response is represented by the EC50 value, the logarithm of which yielded the pEC50 value.
On the technique in general: Calcium flux is commonly read through the fluorescence of an indicator in the cells.

The mark [1] stands for this setting: maximum response normalized to endogenous full agonist = 100%.

SMILES strings stand for the structures. Starred links: 1 amine or outer side, 2 acyl side, 3 side chain; linkers in the order of their positions; H or OH if unused. Positions of bridges follow the written chain, without caps; N, C: chain ends. Non-standard residues stand in square brackets, D forms with d. Residues, ends and D or L forms follow the SMILES beside them. X1 = N[C@H](CC(=O)[*:1])C(=O)[*:2]; d(αMeL) = CC(C)C[C@@](C)(N)C(=O)O; 2Thi = N[C@@H](Cc1cccs1)C(=O)O; Cha = N[C@@H](CC1CCCCC1)C(=O)O; αMeL = CC(C)C[C@](C)(N)C(=O)O; Suc = O=C(CCC(=O)[*:2])[*:1]; Dap = NC[C@H](N)C(=O)O; Sar = CNCC(=O)O

`CC[C@H](C)[C@@H]1NC(=O)[C@H](Cc2ccc(O)cc2)NC(=O)C[C@@H](N)C(=O)NC[C@@H](C(=O)N(C)CC(=O)N[C@@H](CC(C)C)C(=O)NCC(N)=O)NC(=O)[C@H](CC(N)=O)NC(=O)[C@H](CCC(N)=O)NC1=O` [Example 4] (YIQN[Dap][Sar]LG-NH2; linker N-5 via X1): the EC50 turned out to be 5 nM. The “hOT efficacy (%)” value under setting [1] turned out to be 126%.

On to `CC[C@H](C)[C@@H]1NC(=O)[C@H](Cc2ccc(O)cc2)NC(=O)CCC(=O)NC[C@@H](C(=O)N2CCC[C@H]2C(=O)N[C@](C)(CC(C)C)C(=O)NCC(N)=O)NC(=O)[C@H](CC(N)=O)NC(=O)[C@H](CCC(N)=O)NC1=O` [Example 7] (YIQN[Dap]P[d(αMeL)]G-NH2; linker N-5 via Suc), for which the EC50 came out at 3 nM. Besides, under setting [1], the “hOT efficacy (%)” value was determined as 101%.

On to `CC[C@H](C)[C@@H]1NC(=O)[C@H](Cc2ccc(O)cc2)NC(=O)CCC(=O)NC[C@@H](C(=O)N2CCC[C@H]2C(=O)N[C@@H](CCSC)C(=O)NCC(N)=O)NC(=O)[C@H](CC(N)=O)NC(=O)[C@H](CCC(N)=O)NC1=O` [Example 8] (YIQN[Dap]PMG-NH2; linker N-5 via Suc), for which the EC50 amounted to 1 nM. The “hOT efficacy (%)” value under setting [1] was 134%.

For the compound `CC[C@H](C)[C@@H]1NC(=O)[C@H](Cc2ccc(O)cc2)NC(=O)CCC(=O)NC[C@@H](C(=O)N2CCC[C@H]2C(=O)N[C@H](C(=O)NCC(N)=O)[C@@H](C)CC)NC(=O)[C@H](CC(N)=O)NC(=O)[C@H](CCC(N)=O)NC1=O` [Example 9] (YIQN[Dap]PIG-NH2; linker N-5 via Suc), the EC50 came out at 1 nM. Besides, the “hOT efficacy (%)” value under setting [1] is given as 132%.

On to `CC[C@H](C)[C@@H]1NC(=O)[C@H](Cc2ccc(O)cc2)NC(=O)CCC(=O)NC[C@@H](C(=O)N2CCC[C@H]2C(=O)N[C@H](C(=O)NCC(N)=O)[C@@H](C)O)NC(=O)[C@H](CC(N)=O)NC(=O)[C@H](CCC(N)=O)NC1=O` [Example 10] (YIQN[Dap]PTG-NH2; linker N-5 via Suc), for which the EC50 worked out at 1 nM. For the same compound, the “hOT efficacy (%)” value under setting [1] came to 130%.

As for `CC[C@H](C)[C@@H]1NC(=O)[C@H](Cc2ccc(O)cc2)NC(=O)CCC(=O)NC[C@@H](C(=O)N2CCC[C@H]2C(=O)N[C@@H](CO)C(=O)NCC(N)=O)NC(=O)[C@H](CC(N)=O)NC(=O)[C@H](CCC(N)=O)NC1=O` [Example 11] (YIQN[Dap]PSG-NH2; linker N-5 via Suc), the EC50 was 3 nM. Moreover, under setting [1], the “hOT efficacy (%)” value is reported as 128%.

Take `CC[C@H](C)[C@@H]1NC(=O)[C@H](Cc2ccc(O)cc2)NC(=O)CCC(=O)NC[C@@H](C(=O)N2CCC[C@H]2C(=O)N[C@H](C(=O)NCC(N)=O)C(C)C)NC(=O)[C@H](CC(N)=O)NC(=O)[C@H](CCC(N)=O)NC1=O` [Example 12] (YIQN[Dap]PVG-NH2; linker N-5 via Suc): the EC50 amounted to 1.6 nM. Besides, for the setting “CHO, maximum response normalized to endogenous full agonist = 100%, read-out: hOT efficacy (%)”, the Emax stood at 130%.

`CC[C@H](C)[C@@H]1NC(=O)[C@H](Cc2ccc(O)cc2)NC(=O)CCC(=O)NC[C@@H](C(=O)N2CCC[C@H]2C(=O)N[C@@H](CCC(N)=O)C(=O)NCC(N)=O)NC(=O)[C@H](CC(N)=O)NC(=O)[C@H](CCC(N)=O)NC1=O` [Example 13] (YIQN[Dap]PQG-NH2; linker N-5 via Suc): the EC50 was 8 nM. The “hOT efficacy (%)” value under setting [1] is 128%.

`CC[C@H](C)[C@@H]1NC(=O)[C@H](Cc2ccc(O)cc2)NC(=O)CCC(=O)NC[C@@H](C(=O)N2CCC[C@H]2C(=O)N[C@@H](Cc2ccccc2)C(=O)NCC(N)=O)NC(=O)[C@H](CC(N)=O)NC(=O)[C@H](CCC(N)=O)NC1=O` [Example 14] (YIQN[Dap]PFG-NH2; linker N-5 via Suc): the EC50 was found to be 6 nM. Further, the “hOT efficacy (%)” value under setting [1] worked out at 122%.

Consider `CC[C@H](C)[C@@H]1NC(=O)[C@H](Cc2ccc(O)cc2)NC(=O)CCC(=O)NC[C@@H](C(=O)N2CCC[C@H]2C(=O)N[C@@H](Cc2cnc[nH]2)C(=O)NCC(N)=O)NC(=O)[C@H](CC(N)=O)NC(=O)[C@H](CCC(N)=O)NC1=O` [Example 15] (YIQN[Dap]PHG-NH2; linker N-5 via Suc), for which the EC50 came out at 8 nM. Besides, the “hOT efficacy (%)” value under setting [1] turned out to be 123%.

With `CC[C@H](C)[C@@H]1NC(=O)[C@H](Cc2ccc(O)cc2)NC(=O)CCC(=O)NC[C@@H](C(=O)N2CCC[C@H]2C(=O)N[C@@H](Cc2c[nH]c3ccccc23)C(=O)NCC(N)=O)NC(=O)[C@H](CC(N)=O)NC(=O)[C@H](CCC(N)=O)NC1=O` [Example 16] (YIQN[Dap]PWG-NH2; linker N-5 via Suc), the EC50 worked out at 4 nM. In addition, under setting [1], the “hOT efficacy (%)” value is recorded as 100%.

As to `CC[C@H](C)[C@@H]1NC(=O)[C@H](Cc2ccc(O)cc2)NC(=O)CCC(=O)NC[C@@H](C(=O)N2CCC[C@H]2C(=O)N[C@@H](CC2CCCCC2)C(=O)NCC(N)=O)NC(=O)[C@H](CC(N)=O)NC(=O)[C@H](CCC(N)=O)NC1=O` [Example 18] (YIQN[Dap]P[Cha]G-NH2; linker N-5 via Suc), the EC50 is 2 nM. Further, the “hOT efficacy (%)” value under setting [1] is 130%.

In the case of `CC[C@H](C)[C@@H]1NC(=O)[C@H](Cc2ccc(O)cc2)NC(=O)CCC(=O)NC[C@@H](C(=O)N2CCC[C@H]2C(=O)N[C@@H](Cc2cccs2)C(=O)NCC(N)=O)NC(=O)[C@H](CC(N)=O)NC(=O)[C@H](CCC(N)=O)NC1=O` [Example 21] (YIQN[Dap]P[2Thi]G-NH2; linker N-5 via Suc), the EC50 amounted to 4 nM. Besides, the “hOT efficacy (%)” value under setting [1] is 126%.

For `CC[C@H](C)[C@@H]1NC(=O)[C@H](Cc2ccc(O)cc2)NC(=O)CCC(=O)NC[C@@H](C(=O)N(C)CC(=O)N[C@@](C)(CC(C)C)C(=O)NCC(N)=O)NC(=O)[C@H](CC(N)=O)NC(=O)[C@H](CCC(N)=O)NC1=O` [Example 23] (YIQN[Dap][Sar][αMeL]G-NH2; linker N-5 via Suc), the EC50 stood at 3 nM. The “hOT efficacy (%)” value under setting [1] worked out at 123%.

`CC[C@H](C)[C@@H]1NC(=O)[C@H](Cc2ccc(O)cc2)NC(=O)CCC(=O)NC[C@@H](C(=O)N(C)CC(=O)N[C@@H](CO)C(=O)NCC(N)=O)NC(=O)[C@H](CC(N)=O)NC(=O)[C@H](CCC(N)=O)NC1=O` [Example 30] (YIQN[Dap][Sar]SG-NH2; linker N-5 via Suc): the EC50 came to 2 nM. Further, under setting [1], the “hOT efficacy (%)” value came out at 109%.

Turning to `CC[C@H](C)[C@@H]1NC(=O)[C@H](Cc2ccc(O)cc2)NC(=O)CCC(=O)NC[C@@H](C(=O)N(C)CC(=O)N[C@@H](CCC(N)=O)C(=O)NCC(N)=O)NC(=O)[C@H](CC(N)=O)NC(=O)[C@H](CCC(N)=O)NC1=O` [Example 32] (YIQN[Dap][Sar]QG-NH2; linker N-5 via Suc), the EC50 worked out at 5 nM. Also, the “hOT efficacy (%)” value under setting [1] is reported as 112%.

Take `CC[C@H](C)[C@@H]1NC(=O)[C@H](Cc2ccc(O)cc2)NC(=O)CCC(=O)NC[C@@H](C(=O)N(C)CC(=O)N[C@@H](Cc2ccccc2)C(=O)NCC(N)=O)NC(=O)[C@H](CC(N)=O)NC(=O)[C@H](CCC(N)=O)NC1=O` [Example 33] (YIQN[Dap][Sar]FG-NH2; linker N-5 via Suc): the EC50 came to 3 nM. For the same compound, under setting [1], the “hOT efficacy (%)” value turned out to be 111%.

The record behind these values is US9957298B2, “Peptides as oxytocin agonists” (Hoffmann-La Roche Inc., priority 2014, dated 2018).
